Blank lines part the entries; values can stand above or below the compound they belong to.
Assays:
cardiomyocytes = conditions: cited from earlier work
[1] = Measurement of moisture sorption at each relative humidity (water vapor sorption apparatus SGA-100); format: physicochemical; conditions: for moisture sorption (weight increase) at relative humidity 50%: 50% RH; for weight change when humidity was reduced from 95% RH to 5% RH after moisture absorption: humidity decrease 95% RH to 5% RH; for hygroscopicity: from moisture sorption isotherm
Procedure: In the present invention, when moisture sorption at each relative humidity becomes not more than 0.03% in 5 min, or when 3 hours have passed at each relative humidity, the range of relative humidity being from 0% to 95%, the humidity is increased or decreased at 5% intervals, and the moisture sorption isotherms at each relative humidity is obtained gravimetrically by measuring the mass change of a sample.
The above-mentioned moisture sorption can be measured using, for example, SGA-100 type water vapor sorption apparatus (manufactured by VTI) as shown in the Examples. While the error in the relative humidity values depends on the performance of the apparatus, it is about ±1% using this apparatus.
The “moisture sorption” in the present invention refers to the values calculated by the following equation:
moisture sorption (%)=((RM−DM)/DM))*100
wherein DM: sample weight (mg) after sufficient drying at relative humidity 0% RM: sample weight (mg) in the equilibrium state at various relative humidities
For moisture sorption isotherms, when weight variation under each relative humidity condition becomes not more than 0.03% in 5 min, or when 3 hours have passed at each relative humidity, the range of relative humidity being from 0% to 95%, the humidity is increased or decreased at 5% intervals, and the moisture sorption isotherms at each relative humidity is obtained gravimetrically by measuring the mass change of a sample. The “RH” in the preset Examples means “relative humidity”.
5-Methyl-2-(piperazin-1-yl)benzenesulfonic acid monohydrate was dried for 60 min by heating in a sample booth at 80° C. under nitrogen substitution. The sample was used as sample 7 (type-I anhydrate crystal), and measured for moisture sorption from 5% RH.
The sample 2 (type-II anhydrate crystal) obtained in Example 2 was dried for 60 min by heating in a sample booth at 80° C. under nitrogen substitution, and measured for moisture sorption from 5% RH.

[2] = Thermal analysis (DSC822e) of monohydrate crystals; format: physicochemical; conditions: 25-300° C., 20° C./min, dry nitrogen gas
Procedure: In Examples 3, 4 and Experimental Examples 5, 6, each crystal forms was confirmed by powder X-ray diffractometer (manufactured by Bruker) GADDS detector system and thermal analysis equipment (manufactured by Mettler-Toledo) DSC822e system.
For thermal analysis, the measurement was performed in a dry nitrogen gas stream (50 mL/min) from 25° C. to 300° C. at a temperature rise rate of 20° C./min.
Using the solids obtained in Examples 3 and 4 as sample 8 (type-II monohydrate crystal) and sample 9 (type-III monohydrate crystal), respectively, the thermal analysis was performed under the following conditions.
apparatus: DSC822e manufactured by Metter-Toledo temperature rise rate: 20° C./min atmosphere: dry nitrogen gas 50 mL/min measurement temperature: 25-300° C.

[3] = humidity increase from 5% RH to 95% RH

Structure (SMILES): Cc1ccc(N2CCNCC2)c(S(=O)(=O)O)c1 [compound A, 5-methyl-2-(piperazin-1-yl)benzenesulfonic acid]
suppression of excessive influx of calcium ions into cardiomyocytes (cardiomyocytes): remarkably suppresses

moisture sorption (weight increase) at relative humidity 50% ([1]; humidity increase from 5% RH to 95% RH, listed as sample 7): about 6.0%
weight change when humidity was reduced from 95% RH to 5% RH after moisture absorption [1]: weight change was not observed
relative humidity from which moisture absorption was shown [1, 3]: 10 % RH
Structure (SMILES): Cc1ccc(N2CCNCC2)c(S(=O)(=O)O)c1 [type-I anhydrate crystal, 5-methyl-2-(piperazin-1-yl)benzenesulfonic acid anhydrate]

moisture sorption in the range of 0-50% RH ([1]; 0-50% RH, humidity increase from 5% RH to 95% RH): about 2.0%
moisture sorption (weight increase) at relative humidity 50% [1, 3]: not more than 2%
weight increase around 60% RH ([1]; around 60% RH, humidity increase from 5% RH to 95% RH): about 6.5%
hygroscopicity [1]: less hygroscopic
hygroscopicity ([1]; listed as sample 2): hardly present
weight change when humidity was reduced from 95% RH to 5% RH after moisture absorption [1]: weight change was not observed
Structure (SMILES): Cc1ccc(N2CCNCC2)c(S(=O)(=O)O)c1 [type-II anhydrate crystal, 5-methyl-2-(piperazin-1-yl)benzenesulfonic acid anhydrate]

crystal stability by thermal analysis (no noticeable endothermic and exothermic peaks up to around 80° C.) [2]: stable
Structure (SMILES): Cc1ccc(N2CCNCC2)c(S(=O)(=O)O)c1 [type-II monohydrate crystal, 5-methyl-2-(piperazin-1-yl)benzenesulfonic acid monohydrate]
